33 molecules from ChEMBL document CHEMBL1157915, “Bivalent beta-carbolines as potential multitarget anti-Alzheimer agents” (J Med Chem, 2010) can be followed below.

Series [1] is described as follows: Cytotoxicity against mouse L12-G10 cells by MTT assay. It counts as cell-based. On the technique in general: Tetrazolium assays rely on reduction of a dye to a coloured formazan, in cell work by metabolically active cells.
Series [2] is described as follows: Cytotoxicity against mouse L12-G10 cells at 50 uM by MTT assay. It counts as cell-based. The following applies: l12-g10, 50 µM.
The target of series [3] is Acetylcholinesterase (Electrophorus electricus, UniProt O42275).
Chain of Acetylcholinesterase (O42275 whole entry): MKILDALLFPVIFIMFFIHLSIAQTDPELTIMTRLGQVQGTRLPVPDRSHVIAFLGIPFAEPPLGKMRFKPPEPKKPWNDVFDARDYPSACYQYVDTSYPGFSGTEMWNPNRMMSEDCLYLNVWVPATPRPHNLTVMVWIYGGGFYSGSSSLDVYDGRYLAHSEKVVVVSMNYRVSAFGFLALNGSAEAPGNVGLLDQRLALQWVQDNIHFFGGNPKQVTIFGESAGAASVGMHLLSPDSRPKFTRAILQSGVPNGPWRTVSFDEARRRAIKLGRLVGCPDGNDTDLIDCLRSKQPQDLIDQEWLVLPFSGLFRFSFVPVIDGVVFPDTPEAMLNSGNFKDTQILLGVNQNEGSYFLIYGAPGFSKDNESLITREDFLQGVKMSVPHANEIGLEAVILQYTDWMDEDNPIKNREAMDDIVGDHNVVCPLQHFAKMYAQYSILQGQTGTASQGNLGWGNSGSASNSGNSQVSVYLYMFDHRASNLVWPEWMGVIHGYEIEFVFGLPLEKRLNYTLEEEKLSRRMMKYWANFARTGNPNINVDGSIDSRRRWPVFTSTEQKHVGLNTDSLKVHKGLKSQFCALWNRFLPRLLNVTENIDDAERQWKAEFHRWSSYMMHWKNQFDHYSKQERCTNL
Description: Inhibition of electric eel AChE by modified Ellman's method
Series [4] has as its target Cholinesterase (Equus caballus, UniProt P81908).
Description: Inhibition of equine serum BChE by modified Ellman's method
Series [5] has as its target Glutamate NMDA receptor; GRIN1/GRIN2B (Homo sapiens, UniProt Q05586+Q13224). Put plainly: Displacement of [3H]ifenprodil from human NR1-1a/NR2B receptor expressed in mouse L13-E6 cells. It counts as cell-based.
Series [6] deals with Glutamate NMDA receptor; GRIN1/GRIN2A (Homo sapiens) (UniProt Q05586+Q12879). The following applies: L12-G10, 100 uM.
Description: Inhibition of dexamethasone-induced human NR1-1a/NR2A receptor-mediated excitotoxicity in (S)-glutamate/glycine-stimulated mouse L12-G10 cells assessed as LDH release at 100 uM after 30 mins

Values joined by “and” are separate entries in the source; they are usually repeats but may differ in a detail not shown here. Equal values may be shown once.

For orientation: CC50 means the concentration that lowers cell viability or growth by half. Higher therefore signals lower toxicity to the cells. Usually IC50 stands for the point on the concentration scale where inhibition reaches its midpoint. A high value points to weaker potency. What is called Ki is a measure of affinity in units of concentration, obtained from inhibition or displacement. Low values mean a stronger hold on the target, high ones a looser hold on the target. In general, inhibition refers to the drop in the measured response relative to a control, in per cent.

Chain of Cholinesterase (P81908 whole entry): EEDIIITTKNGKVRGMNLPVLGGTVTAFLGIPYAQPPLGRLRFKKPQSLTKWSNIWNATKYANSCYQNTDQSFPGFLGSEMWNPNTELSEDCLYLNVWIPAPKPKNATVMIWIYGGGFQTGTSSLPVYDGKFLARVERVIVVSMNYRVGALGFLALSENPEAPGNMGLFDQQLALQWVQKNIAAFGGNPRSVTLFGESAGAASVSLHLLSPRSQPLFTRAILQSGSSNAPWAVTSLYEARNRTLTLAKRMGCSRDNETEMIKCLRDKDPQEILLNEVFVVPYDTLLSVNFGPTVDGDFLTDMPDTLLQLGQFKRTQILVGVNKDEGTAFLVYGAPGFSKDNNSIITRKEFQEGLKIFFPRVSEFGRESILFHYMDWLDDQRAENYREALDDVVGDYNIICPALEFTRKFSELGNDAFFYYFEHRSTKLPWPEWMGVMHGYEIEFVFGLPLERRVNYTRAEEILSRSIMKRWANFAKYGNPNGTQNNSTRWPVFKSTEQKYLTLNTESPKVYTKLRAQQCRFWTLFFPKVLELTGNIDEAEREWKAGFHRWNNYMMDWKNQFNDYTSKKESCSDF
Chain of Glutamate NMDA receptor; GRIN1/GRIN2B (Q13224 whole entry, other chains not shown): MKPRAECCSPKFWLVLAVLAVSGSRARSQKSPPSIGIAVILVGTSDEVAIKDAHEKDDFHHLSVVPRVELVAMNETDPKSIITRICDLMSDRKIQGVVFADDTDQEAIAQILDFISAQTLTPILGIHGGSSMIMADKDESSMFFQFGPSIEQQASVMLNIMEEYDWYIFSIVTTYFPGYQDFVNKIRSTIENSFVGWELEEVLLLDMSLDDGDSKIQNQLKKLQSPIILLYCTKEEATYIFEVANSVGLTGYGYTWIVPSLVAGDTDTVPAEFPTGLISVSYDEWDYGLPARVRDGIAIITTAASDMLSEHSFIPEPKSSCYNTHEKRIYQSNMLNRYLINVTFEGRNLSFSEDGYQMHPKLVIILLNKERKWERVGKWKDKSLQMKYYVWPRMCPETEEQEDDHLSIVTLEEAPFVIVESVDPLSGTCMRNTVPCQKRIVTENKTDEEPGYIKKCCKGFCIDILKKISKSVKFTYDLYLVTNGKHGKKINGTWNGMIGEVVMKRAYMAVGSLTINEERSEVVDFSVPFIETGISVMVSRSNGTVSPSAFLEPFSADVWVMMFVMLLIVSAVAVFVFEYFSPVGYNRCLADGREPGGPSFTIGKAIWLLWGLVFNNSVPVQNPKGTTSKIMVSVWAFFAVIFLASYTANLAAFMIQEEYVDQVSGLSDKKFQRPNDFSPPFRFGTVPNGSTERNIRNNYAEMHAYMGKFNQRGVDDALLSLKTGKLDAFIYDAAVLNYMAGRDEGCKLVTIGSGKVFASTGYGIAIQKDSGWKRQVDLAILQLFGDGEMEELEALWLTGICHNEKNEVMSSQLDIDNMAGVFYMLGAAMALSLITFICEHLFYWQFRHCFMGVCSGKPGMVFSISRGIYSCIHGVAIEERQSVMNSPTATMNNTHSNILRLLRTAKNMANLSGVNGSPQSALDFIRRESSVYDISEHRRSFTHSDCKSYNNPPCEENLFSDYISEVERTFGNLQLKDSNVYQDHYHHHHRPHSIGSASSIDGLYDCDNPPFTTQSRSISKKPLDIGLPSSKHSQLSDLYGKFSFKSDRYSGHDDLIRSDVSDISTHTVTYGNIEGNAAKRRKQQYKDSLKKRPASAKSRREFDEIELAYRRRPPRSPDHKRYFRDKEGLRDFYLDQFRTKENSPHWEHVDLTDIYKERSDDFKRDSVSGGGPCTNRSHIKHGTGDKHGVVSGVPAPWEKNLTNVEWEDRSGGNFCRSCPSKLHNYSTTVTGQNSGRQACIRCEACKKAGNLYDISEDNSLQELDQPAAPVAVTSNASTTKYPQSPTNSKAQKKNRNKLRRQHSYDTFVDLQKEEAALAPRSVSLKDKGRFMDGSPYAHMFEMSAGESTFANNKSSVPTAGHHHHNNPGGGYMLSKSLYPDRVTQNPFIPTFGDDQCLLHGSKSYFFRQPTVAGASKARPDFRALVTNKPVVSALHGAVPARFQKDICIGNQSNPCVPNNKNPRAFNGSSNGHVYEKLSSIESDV

On to `[Br-].[Br-].c1ccc2c(c1)[nH]c1c[n+](Cc3ccc(C[n+]4ccc5c(c4)[nH]c4ccccc45)cc3)ccc12`, for which the CC50 in series [1] was more than 100000 nM. The Activity in series [2] amounted to 83.2%. The IC50 in series [3] was 147 nM; in series [4] it was 439 nM and 473 nM.
With `[Br-].[Br-].c1ccc2c(c1)[nH]c1c[n+](CC[n+]3ccc4c(c3)[nH]c3ccccc34)ccc12`, the CC50 in series [1] was more than 100000 nM. In series [2], this molecule gave an Activity of 76.6%. Further, the IC50 turned out to be 430 nM in series [3] and 319 nM in series [4].
The corresponding values for `[Br-].[Br-].c1ccc2c(c1)[nH]c1c[n+](CCCCCCCC[n+]3ccc4c(c3)[nH]c3ccccc34)ccc12` are 54200 nM, 51.8%, 113 nM and 75 nM.
As for `c1ccc2c3c([nH]c2c1)CN(CCCCCCCCCCN1CCc2c([nH]c4ccccc24)C1)CC3`, the IC50 in series [3] is more than 1000 nM; in series [4], 2900 nM.
The corresponding values for `CCn1c2ccccc2c2ccncc21` are more than 1000 nM and more than 10000 nM.
Molecule `[Br-].[Br-].c1ccc2c(c1)[nH]c1c[n+](CCCCCC[n+]3ccc4c(c3)[nH]c3ccccc34)ccc12` showed a Ki in series [5] of 20000 nM. Moreover, the CC50 in series [1] was more than 100000 nM. This molecule also came in with an Activity in series [2] of 75%. Moreover, the IC50 in series [3] stood at 248 nM; in series [4], 186 nM.
With `CNC1(c2ccccc2Cl)CCCCC1=O` (centres undefined) [KETAMINE], the CC50 in series [1] was more than 100000 nM. This molecule showed an Activity in series [2] of 99.8%. The IC50 in series [3] and in series [4] was more than 10000 nM throughout.
As to `C[n+]1ccc2c3ccccc3n(CCCCCCCCCn3c4ccccc4c4cc[n+](C)cc43)c2c1.[I-].[I-]`, in series [1], the CC50 is more than 100000 nM. Further, the Activity in series [2] is recorded as 78.9%.
In series [1], `[Br-].[Br-].c1ccc2c(c1)[nH]c1c[n+](CCCCCCCCC[n+]3ccc4c(c3)[nH]c3ccccc34)ccc12` yielded a CC50 of more than 100000 nM. Also, in series [2], the Activity was found to be 73.8%. The figures for the IC50 in series [3] and in series [4] were 125 nM and 40 nM, respectively.
For `CC12CC3CC(C)(C1)CC(N)(C3)C2` [MEMANTINE], in that order: more than 100000 nM, 100.4%, more than 10000 nM and more than 10000 nM.
For `[Br-].[Br-].c1ccc2c(c1)[nH]c1c[n+](CCCC[n+]3ccc4c(c3)[nH]c3ccccc34)ccc12`, in that order: more than 100000 nM, 78.2%, 278 nM and 78 nM.
For `c1cc[n+](CCCCCC[n+]2ccc3c(c2)[nH]c2ccccc23)cc1`, the IC50 amounted to 564 nM in series [3] and 6330 nM in series [4].
For `c1ccc2c(c1)c1ccncc1n2CCCCCn1c2ccccc2c2ccncc21`, in that order: more than 10000 nM and more than 1000 nM.
For `CCn1c2ccccc2c2cc[n+](C)cc21`, in that order: 2570 nM and 2020 nM.
Take `NCCCNCCCCNCCCN`: in series [6], the inhibition came out at 108%.
In the case of `[Br-].[Br-].c1ccc2c(c1)[nH]c1c[n+](CCCCCCCCCCCC[n+]3ccc4c(c3)[nH]c3ccccc34)ccc12`, in series [1], the CC50 was 35100 nM. The same molecule gave an Activity in series [2] of 38%. Also, the figures for the IC50 in series [3] and in series [4] were 86 nM and 22 nM, respectively.
For `[Br-].[Br-].c1ccc2c(c1)[nH]c1c[n+](CCCCCCC[n+]3ccc4c(c3)[nH]c3ccccc34)ccc12`, in that order: more than 100000 nM, 80.1%, 81 nM and 65 nM.
Take `C[n+]1ccc2c(c1)[nH]c1ccccc12`: the values for the IC50 in series [3] and in series [4] were more than 10000 nM and 540 nM, respectively.
For the molecule `c1ccc2c(c1)c1ccncc1n2CCCCCCCCCn1c2ccccc2c2ccncc21`, the CC50 in series [1] is more than 100000 nM. In series [2], this molecule showed an Activity of 67.7%.
`[Br-].[Br-].c1ccc2c(c1)[nH]c1c[n+](CCOCCOCCOCC[n+]3ccc4c(c3)[nH]c3ccccc34)ccc12` had a CC50 in series [1] of more than 100000 nM. In series [2], this molecule showed an Activity of 98.6%. Further, the IC50 in series [3] stood at 3140 nM; in series [4] it was 195 nM.
For `c1ccc2c(c1)c1ccncc1n2CCCCCCCCCCCCn1c2ccccc2c2ccncc21`, in that order: more than 100000 nM, 100.2%, more than 10000 nM and more than 10000 nM.
Consider `c1ccc2c3c([nH]c2c1)CN(CCCCCN1CCc2c([nH]c4ccccc24)C1)CC3`, for which the IC50 in series [3] and in series [4] was more than 1000 nM in each case.
Molecule `[Br-].[Br-].c1ccc2c(c1)[nH]c1c[n+](CCCCC[n+]3ccc4c(c3)[nH]c3ccccc34)ccc12` gave a CC50 in series [1] of more than 100000 nM. In addition, the Activity in series [2] stood at 92.4%. For the same molecule, the IC50 was 595 nM in series [3]; 48.9 nM and 48 nM in series [4].
`C[n+]1ccc2c3ccccc3n(CCCCCn3c4ccccc4c4cc[n+](C)cc43)c2c1`: the IC50 in series [3] was found to be 280 nM; in series [4], 19 nM.
Turning to `c1cc[n+](CCCCCC[n+]2ccccc2)cc1`, the IC50 in series [3] and in series [4] was more than 10000 nM throughout.
With `[Br-].[Br-].c1ccc2c(c1)[nH]c1c[n+](CCCCCCCCCC[n+]3ccc4c(c3)[nH]c3ccccc34)ccc12`, the CC50 in series [1] was more than 100000 nM. This molecule also yielded an Activity in series [2] of 67.5%. Also, the IC50 came to 63 nM in series [3] and 49 nM in series [4].
On to `CCC[n+]1ccc2c(c1)[nH]c1ccccc12`, for which the IC50 in series [3] turned out to be 845 nM; in series [4] it was 2310 nM.
The molecule `C[n+]1ccc2c3ccccc3n(CCCCCCCCCCCCn3c4ccccc4c4cc[n+](C)cc43)c2c1.[I-].[I-]` gave a CC50 in series [1] of 33800 nM. In series [2], this molecule showed an Activity of 52.9%. The IC50 in series [3] amounted to 1.2 nM; in series [4], 4 nM.
`C[C@]12N[C@H](Cc3ccccc31)c1ccccc12` [DIZOCILPINE] showed a CC50 in series [1] of more than 100000 nM. In addition, the Activity in series [2] turned out to be 100.3%.
Molecule `[Br-].[Br-].c1ccc2c(c1)[nH]c1c[n+](CCCCCCCCCCC[n+]3ccc4c(c3)[nH]c3ccccc34)ccc12` returned a CC50 in series [1] of more than 100000 nM. The molecule further registered an Activity in series [2] of 60.3%. The IC50 in series [3] was determined as 92 nM; in series [4], 18 nM.
The corresponding values for `COc1ccc2[nH]c3c[n+](CCCCC[n+]4ccc5c(c4)[nH]c4ccc(OC)cc45)ccc3c2c1.[Br-].[Br-]` are more than 100000 nM, 84.1%, more than 10000 nM and 319 nM.
Take `[Br-].[Br-].c1ccc2c(c1)[nH]c1c[n+](CCC[n+]3ccc4c(c3)[nH]c3ccccc34)ccc12`: in series [1], the CC50 is more than 100000 nM. The molecule further registered an Activity in series [2] of 82.5%. For the same molecule, the figures for the IC50 in series [3] and in series [4] were 7660 nM and 652 nM, respectively.
For `Oc1ccc2[nH]c3c[n+](CCCCC[n+]4ccc5c(c4)[nH]c4ccc(O)cc45)ccc3c2c1.[Br-].[Br-]`, in that order: more than 100000 nM, 71.8%, 4260 nM and 1630 nM.
